The subject of one data set is purified recombinant IDE. The settings on record: same form of purified recombinant IDE; cited from earlier work.
A further data set deals with T1, Recombinant human IDE (Homo sapiens, UniProt P14735).
T1 sequence (P14735 1-1019): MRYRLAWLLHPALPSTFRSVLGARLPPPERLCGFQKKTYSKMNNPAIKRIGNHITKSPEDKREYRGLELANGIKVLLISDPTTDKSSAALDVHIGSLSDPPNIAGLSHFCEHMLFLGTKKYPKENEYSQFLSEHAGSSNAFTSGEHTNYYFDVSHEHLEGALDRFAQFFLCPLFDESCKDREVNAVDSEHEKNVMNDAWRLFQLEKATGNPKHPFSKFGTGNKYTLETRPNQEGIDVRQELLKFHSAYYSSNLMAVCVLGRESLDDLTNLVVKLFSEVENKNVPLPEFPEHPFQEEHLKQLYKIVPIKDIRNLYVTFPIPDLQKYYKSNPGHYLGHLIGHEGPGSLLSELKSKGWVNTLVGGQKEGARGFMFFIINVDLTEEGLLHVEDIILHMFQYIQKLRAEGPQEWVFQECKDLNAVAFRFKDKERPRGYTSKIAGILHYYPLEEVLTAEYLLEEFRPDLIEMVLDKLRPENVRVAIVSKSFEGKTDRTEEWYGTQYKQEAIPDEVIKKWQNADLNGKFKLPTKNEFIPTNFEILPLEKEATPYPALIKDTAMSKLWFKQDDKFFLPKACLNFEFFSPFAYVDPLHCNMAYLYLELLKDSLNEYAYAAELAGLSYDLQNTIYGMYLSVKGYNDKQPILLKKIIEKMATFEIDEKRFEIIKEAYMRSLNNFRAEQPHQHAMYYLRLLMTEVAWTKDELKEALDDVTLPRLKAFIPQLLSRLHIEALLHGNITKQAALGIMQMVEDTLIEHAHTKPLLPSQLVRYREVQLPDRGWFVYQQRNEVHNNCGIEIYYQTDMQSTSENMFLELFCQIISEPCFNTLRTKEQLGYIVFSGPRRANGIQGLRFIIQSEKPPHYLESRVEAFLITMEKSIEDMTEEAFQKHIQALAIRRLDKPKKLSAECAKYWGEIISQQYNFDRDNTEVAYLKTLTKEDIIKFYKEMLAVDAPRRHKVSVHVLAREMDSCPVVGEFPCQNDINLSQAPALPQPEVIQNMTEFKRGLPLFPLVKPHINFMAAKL
In words: Fluorescence polarization. Type of data set: biochemical. On the technique in general: Fluorescence polarisation rises when a labelled molecule tumbles more slowly, as on binding a larger partner.

For data set [1], the system named is semi-purified protease purified from rat liver, inferred to be IDE. The note with it: protease purified by affinity chromatography from rat liver; cited from earlier work.
Where [2] appears, read: ML345 50 nM, FP-based assay, mean ± SD of 3 independent runs.

insulin: the “kcat of degradation by IDE” value in the data set with purified recombinant IDE was 0.025 s⁻¹.

On to `O=c1c2cc(F)ccc2sn1-c1cc(S(=O)(=O)N2CCOCC2)ccc1N1CCOCC1` [ML345], for which, on Recombinant human IDE (setting [2]), the “KM^app of FBG degradation in presence of inhibitor” value stood at 0.392 ± 0.073 µM and the “vmax^app of FBG degradation in presence of inhibitor” value was found to be 0.827 ± 0.032 nM/s. Also, the “mechanism of inhibition of IDE” value on Recombinant human IDE (kinetics analyses, Lineweaver-Burk plots, P12–3A 5 µM or ML345 50 nM) is “irreversible”.

Take bacitracin: the “inhibition of the purified protease” value in data set [1] is reported as “susceptible to inhibition”.

Source of the values: publication PMC6585941 (SLAS discovery : advancing life sciences R & D, 2018).
